# Like-named read-outs stand apart in the source and are kept apart here. Square brackets hold non-standard residues; d marks the D form. Side chains are listed from the residue outwards. Peptide text beside a SMILES is read from it. * marks the point of attachment. X12 = CCOc1ccc(C[C@@H](NC(=O)[C@H](N)Cc2ccccc2)C(=O)*)cc1; Piperidin1yl(4-NH2,4-COOH) = NC1(C(=O)O)CCN(*)CC1; Piperidinyl(4-NH2,4-CONH2) = NC(=O)C1(N)CCN(*)CC1; X1 = NCCCC[C@@H](NC(=O)C1(N)CCN(*)CC1)C(N)=O; X6 = NCCCC[C@H](NC(=O)C1(N)CCN(*)CC1)C(N)=O; dAla(cPr) = N[C@H](CC1CC1)C(=O)O; Trifluoroethyl = FC(F)(F)C*; Api = NC1(C(=O)O)CCNCC1
# Biological target: T1, human κ opioid receptor (OPRK1) (Homo sapiens, UniProt P41145)
# T1 construct: expressed in transfected cells; host or cells: CHO-K1
# Test: Determination of activities of κ receptor agonists: inhibition of forskolin-stimulated cAMP release (HTRF) in stably transfected CHO-K1 cells
# Type: cell-based
# Conditions: for Relative Activity %: relative to Difelikefalin = 100.0
# Source text: Gi-coupled human κ opioid receptor (OPRK1), upon stimulation with its specific opioid receptor agonists, can inhibit the intracellular adenylate cyclase pathway, and decrease cAMP levels. Forskolin can stimulate cAMP release in cell lines highly expressing opioid receptors. By stimulating cell lines stably transfected with opioid receptors, the inhibitory effect of a test compound on forskolin-stimulated cAMP release can be measured to determine the activity of the compound. The relative light units (RLU) from the cells after stimulation with different doses were measured via the homogeneous time-resolved fluorescence technique (HTRF), and the EC50 value of the agonist was subsequently calculated. This activity determination method is a currently commonly used method for determining the activities of opioid receptor agonists at home and abroad.
# A CHO-K1 cell line stably expressing opioid receptors was used. Stably transfected cells were stimulated with various concentrations of agonists (under the stimulation of a certain concentration of forskolin). The relative light units from the cells after stimulation with different doses were measured, from which the EC50 value of the agonist was subsequently obtained by calculation.
# [1] = CHO-K1 cell line stably expressing opioid receptors, forskolin-stimulated cAMP, HTRF, read-out: EC50
# T1 sequence (P41145 whole entry): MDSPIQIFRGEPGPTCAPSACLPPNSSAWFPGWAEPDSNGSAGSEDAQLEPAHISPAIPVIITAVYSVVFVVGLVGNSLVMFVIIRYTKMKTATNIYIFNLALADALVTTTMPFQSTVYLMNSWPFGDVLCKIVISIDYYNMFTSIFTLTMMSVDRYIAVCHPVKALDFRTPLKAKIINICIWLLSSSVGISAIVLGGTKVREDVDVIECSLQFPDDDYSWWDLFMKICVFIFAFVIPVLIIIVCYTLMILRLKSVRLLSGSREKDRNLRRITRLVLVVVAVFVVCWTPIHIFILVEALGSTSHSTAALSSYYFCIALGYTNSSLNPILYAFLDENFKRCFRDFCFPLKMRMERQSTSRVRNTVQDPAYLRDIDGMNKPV
smiles,measurement,setting,value
"CC(C)C[C@@H](NC(=O)[C@@H](Cc1ccc(C(C)C)cc1)NC(=O)[C@H](N)Cc1ccccc1)C(=O)N[C@H](CCCCN)C(=O)N1CCC(N)(C(=O)N[C@H](CCCCN)C(N)=O)CC1 [Compound 137, D-Phe-D-Phe(4-Ipr)-D-Leu-D-Lys-4-aminopiperidine-4-carboxamide-D-Lys-NH2]",EC50,,0.143 nM
same,Relative Activity %,,423.1%
"COc1ccc(C[C@@H](NC(=O)[C@H](N)Cc2ccccc2)C(=O)N[C@H](CC(C)C)C(=O)N[C@H](CCCCN)C(=O)N2CCC(N)(C(=O)O)CC2)cc1 [Compound 86, D-Phe-D-Tyr(Me)-D-Leu-D-Lys-4-aminopiperidine-4-carboxamide-OH] (H-[dF][dY](Me)[dL][dK]-{Piperidin1yl(4-NH2,4-COOH)}; N-terminus assumed)",EC50,,0.121 nM
same,Relative Activity %,,501.0%
"CCOc1ccc(C[C@@H](NC(=O)[C@H](N)Cc2ccccc2)C(=O)N[C@H](CC(C)C)C(=O)N[C@H](CCCCN)C(=O)N2CCC(N)(C(=O)N[C@H](CCCCN)C(=O)N[C@H](CCCCN)C(=O)N[C@H](CCCCN)C(=O)N[C@H](CCCCN)C(N)=O)CC2)cc1 [Compound 21, D-Phe-D-Tyr(Et)-D-Leu-D-Lys-4-aminopiperidine-4-carboxamide-D-Lys-D-Lys-D-Lys-D-Lys -NH2] (H-[Api]([dK-dL-X12])[dK][dK][dK][dK]-NH2; N-terminus assumed)",EC50,,0.0501 nM
same,Relative Activity %,,1212.0%
"Cc1ccc(C[C@@H](NC(=O)[C@H](N)Cc2ccccc2)C(=O)N[C@H](CC(C)C)C(=O)N[C@H](CCCCN)C(=O)N2CCC(N)(C(=O)N[C@@H](CCCCN)C(=O)O)CC2)cc1 [Compound 128, D-Phe-D-Phe(4-Me)-D-Leu-D-Lys-4-aminopiperidine-4-carboxamide-Lys-OH]",EC50,,0.16 nM
same,Relative Activity %,,380.2%
"CC(C)C[C@@H](NC(=O)[C@@H](Cc1ccc(OCC(F)(F)F)cc1)NC(=O)[C@H](N)Cc1ccccc1)C(=O)N[C@H](CCCCN)C(=O)N1CCC(N)(C(=O)N[C@H](CCCCN)C(N)=O)CC1 [Compound 95, D-Phe-D-Tyr(CH2CF3)-D-Leu-D-Lys-4-aminopiperidine-4-carboxamide-D-Lys-NH2] (H-[dF][dY](Trifluoroethyl)[dL][dK]-X1; N-terminus assumed)",EC50,,0.0505 nM
same,Relative Activity %,,1202.4%
"CC(C)C[C@@H](NC(=O)[C@@H](Cc1ccc(I)cc1)NC(=O)[C@H](N)Cc1ccccc1)C(=O)N[C@H](CCCCN)C(=O)N1CCC(N)(C(=O)N[C@@H](CCCCN)C(=O)O)CC1 [Compound 124, D-Phe-D-Phe(4-I)-D-Leu-D-Lys-4-aminopiperidine-4-carboxamide-Lys-OH]",EC50,,0.0558 nM
same,Relative Activity %,,1088.2%
"CCc1ccc(C[C@@H](NC(=O)[C@H](N)Cc2ccccc2)C(=O)N[C@H](CC(C)C)C(=O)N[C@H](CCCCN)C(=O)N2CCC(N)(C(=O)N[C@H](CCCCN)C(=O)O)CC2)cc1 [Compound 134, D-Phe-D-Phe(4-Et)-D-Leu-D-Lys-4-aminopiperidine-4-carboxamide-D-Lys-OH]",EC50,,0.133 nM
same,Relative Activity %,,457.6%
"CC(C)C[C@@H](NC(=O)[C@@H](Cc1ccc(Cl)cc1)NC(=O)[C@H](N)Cc1ccccc1)C(=O)N[C@H](CCCCN)C(=O)N1CCC(N)(C(=O)N[C@@H](CCCCN)C(=O)O)CC1 [Compound 112, D-Phe-D-Phe(4-C1)-D-Leu-D-Lys-4-aminopiperidine-4-carboxamide-Lys-OH]",EC50,,0.0508 nM
same,Relative Activity %,,1195.3%
"CC(C)C[C@@H](NC(=O)[C@@H](Cc1ccc(Cl)cc1)NC(=O)[C@H](N)Cc1ccccc1)C(=O)N[C@H](CCCCN)C(=O)N1CCC(N)(C(=O)N[C@H](CCCCN)C(=O)O)CC1 [Compound 114, D-Phe-D-Phe(4-C1)-D-Leu-D-Lys-4-aminopiperidine-4-carboxamide-D-Lys-OH]",EC50,,0.0515 nM
same,Relative Activity %,,1179.0%
"CCOc1ccc(C[C@@H](NC(=O)[C@H](N)Cc2ccccc2)C(=O)N[C@H](CC(C)C)C(=O)N[C@H](CCCCN)C(=O)N2CCC(N)(C(=O)N[C@@H](CCCCN)C(N)=O)CC2)cc1 [Compound 3, D-Phe-D-Tyr(Et)-D-Leu-D-Lys-4-aminopiperidine-4-carboxamide-Lys-NH2] (H-[dF][dY](Et)[dL][dK]-X6; N-terminus assumed)",EC50,,0.0394 nM
same,Relative Activity %,,1541.1%
"CC(C)C[C@@H](NC(=O)[C@@H](Cc1ccccc1)NC(=O)[C@H](N)Cc1ccccc1)C(=O)N[C@H](CCCCN)C(=O)N1CCC(N)(C(=O)O)CC1 [Difelikefalin, D-Phe-D-Phe-D-Leu-D-Lys-4-caminopiperidine-4-arboxylicacid-OH, reference compound]",EC50,[1],0.607 nM
"CCOc1ccc(C[C@@H](NC(=O)[C@H](N)Cc2ccccc2)C(=O)N[C@H](CC2CC2)C(=O)N[C@H](CCCCN)C(=O)N2CCC(N)(C(=O)O)CC2)cc1 [Compound 68, D-Phe-D-Tyr(Et)-D-cyclopropylalanine-D-Lys-4-aminopiperidine-4-carboxamide-OH] (H-[dF][dY](Et)[dAla(cPr)][dK]-{Piperidin1yl(4-NH2,4-COOH)}; N-terminus assumed)",EC50,[1],0.126 nM
same,Relative Activity %,,483.4%
"CCOc1ccc(C[C@@H](NC(=O)[C@H](N)Cc2ccccc2)C(=O)N[C@H](CC2CC2)C(=O)N[C@H](CCCCN)C(=O)N2CCC(N)(C(=O)N[C@@H](CCCCN)C(N)=O)CC2)cc1 [Compound 69, D-Phe-D-Tyr(Et)-D-cyclopropylalanine-D-Lys-4-aminopiperidine-4-carboxamide-Lys-NH2] (H-[dF][dY](Et)[dAla(cPr)][dK]-X6; N-terminus assumed)",EC50,[1],0.0424 nM
same,Relative Activity %,,1432.1%
"CC(C)C[C@@H](NC(=O)[C@@H](Cc1ccc(I)cc1)NC(=O)[C@H](N)Cc1ccccc1)C(=O)N[C@H](CCCCN)C(=O)N1CCC(N)(C(=O)N[C@H](CCCCN)C(N)=O)CC1 [Compound 125, D-Phe-D-Phe(4-I)-D-Leu-D-Lys-4-aminopiperidine-4-carboxamide-D-Lys-NH2]",EC50,,0.055 nM
same,Relative Activity %,,1104.0%
"CCOc1ccc(C[C@@H](NC(=O)[C@H](N)Cc2ccccc2)C(=O)N[C@H](CC(C)C)C(=O)N[C@H](CCCCN)C(=O)N2CCC(N)(C(=O)N[C@@H](CCCCN)C(=O)N[C@@H](CCCCN)C(=O)N[C@@H](CCCCN)C(=O)N[C@@H](CCCCN)C(=O)N[C@@H](CCCCN)C(N)=O)CC2)cc1 [Compound 11, D-Phe-D-Tyr(Et)-D-Leu-D-Lys-4-aminopiperidine-4-carboxamide-Lys-Lys-Lys-Lys-Lys-NH2] (H-[Api]([dK-dL-X12])KKKKK-NH2; N-terminus assumed)",EC50,,0.0534 nM
same,Relative Activity %,,1137.1%
"CCc1ccc(C[C@@H](NC(=O)[C@H](N)Cc2ccccc2)C(=O)N[C@H](CC(C)C)C(=O)N[C@H](CCCCN)C(=O)N2CCC(N)(C(=O)N[C@H](CCCCN)C(N)=O)CC2)cc1 [Compound 133, D-Phe-D-Phe(4-Et)-D-Leu-D-Lys-4-aminopiperidine-4-carboxamide-D-Lys-NH2]",EC50,,0.132 nM
same,Relative Activity %,,461.7%
"CCOc1ccc(C[C@@H](NC(=O)[C@H](N)Cc2ccccc2)C(=O)N[C@H](CC(C)C)C(=O)N[C@H](CCCCN)C(=O)N2CCC(N)(C(=O)N[C@H](CCCCN)C(=O)N[C@H](CCCCN)C(=O)N[C@H](CCCCN)C(=O)N[C@H](CCCCN)C(=O)N[C@H](CCCCN)C(=O)N[C@H](CCCCN)C(N)=O)CC2)cc1 [Compound 25, D-Phe-D-Tyr(Et)-D-Leu-D-Lys-4-aminopiperidine-4-carboxamide-D-Lys-D-Lys-D-Lys-D-Lys -D-Lys-D-Lys-NH2] (H-[Api]([dK-dL-X12])[dK][dK][dK][dK][dK][dK]-NH2; N-terminus assumed)",EC50,,0.0684 nM
same,Relative Activity %,,887.7%
"CCOc1ccc(C[C@@H](NC(=O)[C@H](N)Cc2ccccc2)C(=O)N[C@H](CC(C)C)C(=O)N[C@H](CCCCN)C(=O)N2CCC(N)(C(=O)NCC(=O)NCC(=O)NCC(=O)N[C@@H](CCCCN)C(=O)O)CC2)cc1 [Compound 56, D-Phe-D-Tyr(Et)-D-Leu-D-Lys-4-aminopiperidine-4-carboxamide-Gly-Gly-Gly-Lys-OH] (H-[Api]([dK-dL-X12])GGGK-OH; N-terminus assumed)",EC50,,0.0506 nM
same,Relative Activity %,,1200.0%
"CC(C)C[C@@H](NC(=O)[C@@H](Cc1ccc(OCC(F)(F)F)cc1)NC(=O)[C@H](N)Cc1ccccc1)C(=O)N[C@H](CCCCN)C(=O)N1CCC(N)(C(N)=O)CC1 [Compound 91, D-Phe-D-Tyr(CH2CF3)-D-Leu-D-Lys-4-aminopiperidine-4-carboxamide-NH2] (H-[dF][dY](Trifluoroethyl)[dL][dK]-{Piperidinyl(4-NH2,4-CONH2)}; N-terminus assumed)",EC50,,0.11 nM
same,Relative Activity %,,550.0%
"CCOc1ccc(C[C@@H](NC(=O)[C@H](N)Cc2ccccc2)C(=O)N[C@H](CC(C)C)C(=O)N[C@H](CCCCN)C(=O)N2CCC(N)(C(N)=O)CC2)cc1 [Compound 1, D-Phe-D-Tyr(Et)-D-Leu-D-Lys-4-aminopiperidine-4-carboxylicacid-NH2] (H-[dF][dY](Et)[dL][dK]-{Piperidinyl(4-NH2,4-CONH2)}; N-terminus assumed)",EC50,,0.116 nM
same,Relative Activity %,,524.8%
"CC(C)C[C@@H](NC(=O)[C@@H](Cc1ccc(Br)cc1)NC(=O)[C@H](N)Cc1ccccc1)C(=O)N[C@H](CCCCN)C(=O)N1CCC(N)(C(=O)N[C@H](CCCCN)C(N)=O)CC1 [Compound 119, D-Phe-D-Phe(4-Br)-D-Leu-D-Lys-4-aminopiperidine-4-carboxamide-D-Lys-NH2]",EC50,,0.0615 nM
same,Relative Activity %,,987.3%
